Reference: PubChem BioAssay AID1963436 (Molecular Pharmacology Branch, DTP, NCI, 2024)
pIC50: −log10 of the molar value.

System: OVCAR-5 complex spheroid (HUVEC/MSC), viability % T/C
Experiment: Anticancer human tumor OVCAR-5 cell line growth inhibition [Asc];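 further: spheroids exposed to agents for 7 days before readout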;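 on viability, T/C: 100% = DMSO vehicle-treated wells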
Details: for pIC50: curve of first compound; for viability, T/C: stronger effect = lower value; active means viability on the fitted dose curve at most 10% of control; inactive means the rest
Summary of the method: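 Spheroid model: tumor line + HUVEC + hMSC. Single agents and combinations; top conc. at/near clinical Cmax (10 microM if undetermined), half-log dilutions. DMSO stocks at 800-fold test concentration.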

Cn1ncnc1[C@H]1c2n[nH]c(=O)c3cc(F)cc(c23)N[C@@H]1c1ccc(F)cc1 + CCN1C(C(=O)NC23CCC(C(=O)O)(CC2)CC3)C(c2cccc(Cl)c2F)C2(C(=O)Nc3cc(Cl)ccc32)C12CCCCC2
inactive: viability, T/C (second compound 0.03 µM, first compound 0.000316 µM) 108% | viability, T/C (second compound 0.03 µM, first compound 0.001 µM) 108% | viability, T/C (second compound 0.03 µM, first compound 0.00316 µM) 88.9% | viability, T/C (second compound 0.03 µM, first compound 0.01 µM) 94% | viability, T/C (second compound 0.03 µM, first compound 0.0316 µM) 96% | viability, T/C (second compound 0.03 µM, first compound 0.1 µM) 91.1% | viability, T/C (second compound 0.0949 µM, first compound 0.000316 µM) 103% | viability, T/C (second compound 0.0949 µM, first compound 0.001 µM) 109% | viability, T/C (second compound 0.0949 µM, first compound 0.00316 µM) 89.7% | viability, T/C (second compound 0.0949 µM, first compound 0.01 µM) 91% | viability, T/C (second compound 0.0949 µM, first compound 0.0316 µM) 101% | viability, T/C (second compound 0.0949 µM, first compound 0.1 µM) 82.8% | viability, T/C (second compound 0.3 µM, first compound 0.000316 µM) 112% | viability, T/C (second compound 0.3 µM, first compound 0.001 µM) 114% | viability, T/C (second compound 0.3 µM, first compound 0.00316 µM) 102% | viability, T/C (second compound 0.3 µM, first compound 0.01 µM) 80.7% | viability, T/C (second compound 0.3 µM, first compound 0.0316 µM) 98.3% | viability, T/C (second compound 0.3 µM, first compound 0.1 µM) 98.8% | viability, T/C (second compound 0.949 µM, first compound 0.000316 µM) 112% | viability, T/C (second compound 0.949 µM, first compound 0.001 µM) 121% | viability, T/C (second compound 0.949 µM, first compound 0.00316 µM) 106% | viability, T/C (second compound 0.949 µM, first compound 0.01 µM) 97.4% | viability, T/C (second compound 0.949 µM, first compound 0.0316 µM) 106% | viability, T/C (second compound 0.949 µM, first compound 0.1 µM) 88.7% | viability, T/C (second compound 3 µM, first compound 0.000316 µM) 109% | viability, T/C (second compound 3 µM, first compound 0.001 µM) 105% | viability, T/C (second compound 3 µM, first compound 0.00316 µM) 109% | viability, T/C (second compound 3 µM, first compound 0.01 µM) 91.4% | viability, T/C (second compound 3 µM, first compound 0.0316 µM) 106% | viability, T/C (second compound 3 µM, first compound 0.1 µM) 89%
< 7.00: pIC50 (second compound 0.03 µM) | pIC50 (second compound 0.0949 µM) | pIC50 (second compound 0.3 µM) | pIC50 (second compound 0.949 µM) | pIC50 (second compound 3 µM)

COc1c(OCCCN2CCOCC2)ccc2c3n(c(=NC(=O)c4cnc(N)nc4)nc12)CCN3 + CNC(C)C(=O)NC1CN(S(=O)(=O)c2cccc(S(=O)(=O)N3CCC4CCC(C(=O)NC(c5ccccc5)c5ccccc5)N4C(=O)C(NC(=O)C(C)NC)C3)c2)CCC2CCC(C(=O)NC(c3ccccc3)c3ccccc3)N2C1=O
7.73: pIC50 (second compound 0.316 µM)
inactive: viability, T/C (second compound 0.01 µM, first compound 0.00316 µM) 93.3% | viability, T/C (second compound 0.01 µM, first compound 0.01 µM) 67.4% | viability, T/C (second compound 0.01 µM, first compound 0.0316 µM) 48% | viability, T/C (second compound 0.01 µM, first compound 0.1 µM) 35% | viability, T/C (second compound 0.01 µM, first compound 0.316 µM) 17.1% | viability, T/C (second compound 0.0316 µM, first compound 0.00316 µM) 69.8% | viability, T/C (second compound 0.0316 µM, first compound 0.01 µM) 63.6% | viability, T/C (second compound 0.0316 µM, first compound 0.0316 µM) 42.5% | viability, T/C (second compound 0.0316 µM, first compound 0.1 µM) 30.2% | viability, T/C (second compound 0.0316 µM, first compound 0.316 µM) 17.6% | viability, T/C (second compound 0.1 µM, first compound 0.00316 µM) 68% | viability, T/C (second compound 0.1 µM, first compound 0.01 µM) 61.5% | viability, T/C (second compound 0.1 µM, first compound 0.0316 µM) 41.5% | viability, T/C (second compound 0.1 µM, first compound 0.1 µM) 26.3% | viability, T/C (second compound 0.1 µM, first compound 0.316 µM) 15.9% | viability, T/C (second compound 0.316 µM, first compound 0.00316 µM) 67.1% | viability, T/C (second compound 0.316 µM, first compound 0.01 µM) 59.9% | viability, T/C (second compound 0.316 µM, first compound 0.0316 µM) 41.7% | viability, T/C (second compound 0.316 µM, first compound 0.1 µM) 25.3% | viability, T/C (second compound 0.316 µM, first compound 0.316 µM) 13.1% | viability, T/C (second compound 1 µM, first compound 0.00316 µM) 82.9% | viability, T/C (second compound 1 µM, first compound 0.01 µM) 56.1% | viability, T/C (second compound 1 µM, first compound 0.0316 µM) 42.1% | viability, T/C (second compound 1 µM, first compound 0.1 µM) 27.1% | viability, T/C (second compound 1 µM, first compound 0.316 µM) 12.3%
7.65: pIC50 (second compound 0.0316 µM)
7.71: pIC50 (second compound 0.1 µM)
7.53: pIC50 (second compound 0.01 µM)
active: viability, T/C (second compound 0.01 µM, first compound 1 µM) 8.86% | viability, T/C (second compound 0.0316 µM, first compound 1 µM) 7.75% | viability, T/C (second compound 0.1 µM, first compound 1 µM) 7.03% | viability, T/C (second compound 0.316 µM, first compound 1 µM) 6.27% | viability, T/C (second compound 1 µM, first compound 1 µM) 6.51%
7.75: pIC50 (second compound 1 µM)
